Experimental data from the NIST ThermoML archive (doi:10.1016/j.jct.2012.03.031).

Assay: molar heat capacity at constant pressure
Conditions: 101.33 kPa

CCCCc1ccc(C(=O)Oc2ccc(C#N)c(F)c2)cc1 [4-cyano-3-fluorophenyl 4-butylbenzoate]
Conditions | molar heat capacity at constant pressure [J/K/mol]
4.918 K, Crystal 1, Small (less than 1 g) adiabatic calorimetry | 1.032
5 K, Crystal 1, Vacuum adiabatic calorimetry | 1.08
5 K, Crystal 2, Vacuum adiabatic calorimetry | 1.44
5.052 K, Crystal 2, Small (less than 1 g) adiabatic calorimetry | 1.482
5.07 K, Crystal 1, Small (less than 1 g) adiabatic calorimetry | 1.127
5.575 K, Crystal 1, Small (less than 1 g) adiabatic calorimetry | 1.448
5.722 K, Crystal 2, Small (less than 1 g) adiabatic calorimetry | 2.06
5.747 K, Crystal 1, Small (less than 1 g) adiabatic calorimetry | 1.591
6.284 K, Crystal 1, Small (less than 1 g) adiabatic calorimetry | 2.011
6.538 K, Crystal 2, Small (less than 1 g) adiabatic calorimetry | 2.901
6.573 K, Crystal 1, Small (less than 1 g) adiabatic calorimetry | 2.293
7.108 K, Crystal 1, Small (less than 1 g) adiabatic calorimetry | 2.802
7.413 K, Crystal 2, Small (less than 1 g) adiabatic calorimetry | 3.946
7.456 K, Crystal 1, Small (less than 1 g) adiabatic calorimetry | 3.2
8.006 K, Crystal 1, Small (less than 1 g) adiabatic calorimetry | 3.815
8.284 K, Crystal 2, Small (less than 1 g) adiabatic calorimetry | 5.139
8.384 K, Crystal 1, Small (less than 1 g) adiabatic calorimetry | 4.319
8.948 K, Crystal 1, Small (less than 1 g) adiabatic calorimetry | 5.034
9.21 K, Crystal 2, Small (less than 1 g) adiabatic calorimetry | 6.549
9.353 K, Crystal 1, Small (less than 1 g) adiabatic calorimetry | 5.638
9.931 K, Crystal 1, Small (less than 1 g) adiabatic calorimetry | 6.451
10 K, Crystal 1, Vacuum adiabatic calorimetry | 6.56
10 K, Crystal 2, Vacuum adiabatic calorimetry | 7.87
10.23 K, Crystal 2, Small (less than 1 g) adiabatic calorimetry | 8.254
10.31 K, Crystal 1, Small (less than 1 g) adiabatic calorimetry | 7.064
10.88 K, Crystal 1, Small (less than 1 g) adiabatic calorimetry | 7.93
11.24 K, Crystal 2, Small (less than 1 g) adiabatic calorimetry | 10.07
11.26 K, Crystal 1, Small (less than 1 g) adiabatic calorimetry | 8.608
11.81 K, Crystal 1, Small (less than 1 g) adiabatic calorimetry | 9.492
12.23 K, Crystal 1, Small (less than 1 g) adiabatic calorimetry | 10.25
12.28 K, Crystal 2, Small (less than 1 g) adiabatic calorimetry | 12.04
12.81 K, Crystal 1, Small (less than 1 g) adiabatic calorimetry | 11.22
13.24 K, Crystal 1, Small (less than 1 g) adiabatic calorimetry | 12.07
13.39 K, Crystal 2, Small (less than 1 g) adiabatic calorimetry | 14.28
13.89 K, Crystal 1, Small (less than 1 g) adiabatic calorimetry | 13.26
14.32 K, Crystal 1, Small (less than 1 g) adiabatic calorimetry | 14.11
14.71 K, Crystal 2, Small (less than 1 g) adiabatic calorimetry | 17
15.07 K, Crystal 1, Small (less than 1 g) adiabatic calorimetry | 15.49
15.47 K, Crystal 1, Small (less than 1 g) adiabatic calorimetry | 16.32
16.2 K, Crystal 2, Small (less than 1 g) adiabatic calorimetry | 20.27
16.43 K, Crystal 1, Small (less than 1 g) adiabatic calorimetry | 18.21
16.76 K, Crystal 1, Small (less than 1 g) adiabatic calorimetry | 18.95
17.73 K, Crystal 2, Small (less than 1 g) adiabatic calorimetry | 23.69
18.05 K, Crystal 1, Small (less than 1 g) adiabatic calorimetry | 21.6
18.4 K, Crystal 1, Small (less than 1 g) adiabatic calorimetry | 22.4
19.39 K, Crystal 2, Small (less than 1 g) adiabatic calorimetry | 27.53
19.84 K, Crystal 1, Small (less than 1 g) adiabatic calorimetry | 25.4
20 K, Crystal 1, Vacuum adiabatic calorimetry | 25.75
20 K, Crystal 2, Vacuum adiabatic calorimetry | 28.93
20.07 K, Crystal 1, Small (less than 1 g) adiabatic calorimetry | 25.94
21.11 K, Crystal 2, Small (less than 1 g) adiabatic calorimetry | 31.48
21.53 K, Crystal 1, Small (less than 1 g) adiabatic calorimetry | 29.12
21.58 K, Crystal 1, Small (less than 1 g) adiabatic calorimetry | 29.19
22.83 K, Crystal 2, Small (less than 1 g) adiabatic calorimetry | 35.46
23.05 K, Crystal 1, Small (less than 1 g) adiabatic calorimetry | 32.44
23.28 K, Crystal 1, Small (less than 1 g) adiabatic calorimetry | 32.87
24.53 K, Crystal 2, Small (less than 1 g) adiabatic calorimetry | 39.3
24.67 K, Crystal 1, Small (less than 1 g) adiabatic calorimetry | 35.93
24.93 K, Crystal 1, Small (less than 1 g) adiabatic calorimetry | 36.45
26.2 K, Crystal 2, Small (less than 1 g) adiabatic calorimetry | 43.02
26.34 K, Crystal 1, Small (less than 1 g) adiabatic calorimetry | 39.52
26.69 K, Crystal 1, Small (less than 1 g) adiabatic calorimetry | 40.25
27.89 K, Crystal 2, Small (less than 1 g) adiabatic calorimetry | 47.05
27.96 K, Crystal 1, Small (less than 1 g) adiabatic calorimetry | 43.27
28.5 K, Crystal 1, Small (less than 1 g) adiabatic calorimetry | 44.43
29.49 K, Crystal 1, Small (less than 1 g) adiabatic calorimetry | 46.73
29.58 K, Crystal 2, Small (less than 1 g) adiabatic calorimetry | 50.91
30 K, Crystal 1, Vacuum adiabatic calorimetry | 47.75
30 K, Crystal 2, Vacuum adiabatic calorimetry | 51.82
30.38 K, Crystal 1, Small (less than 1 g) adiabatic calorimetry | 48.59
30.97 K, Crystal 1, Small (less than 1 g) adiabatic calorimetry | 49.89
31.27 K, Crystal 2, Small (less than 1 g) adiabatic calorimetry | 54.58
32.25 K, Crystal 1, Small (less than 1 g) adiabatic calorimetry | 52.59
32.3 K, Crystal 1, Small (less than 1 g) adiabatic calorimetry | 52.61
32.73 K, Crystal 2, Small (less than 1 g) adiabatic calorimetry | 57.73
33.42 K, Crystal 1, Small (less than 1 g) adiabatic calorimetry | 55.02
34.08 K, Crystal 2, Small (less than 1 g) adiabatic calorimetry | 60.65
34.18 K, Crystal 1, Small (less than 1 g) adiabatic calorimetry | 56.62
34.66 K, Crystal 1, Small (less than 1 g) adiabatic calorimetry | 57.7
35.58 K, Crystal 2, Small (less than 1 g) adiabatic calorimetry | 63.81
35.96 K, Crystal 1, Small (less than 1 g) adiabatic calorimetry | 60.42
36.15 K, Crystal 1, Small (less than 1 g) adiabatic calorimetry | 60.78
37.11 K, Crystal 2, Small (less than 1 g) adiabatic calorimetry | 67
37.29 K, Crystal 1, Small (less than 1 g) adiabatic calorimetry | 63.17
38.18 K, Crystal 1, Small (less than 1 g) adiabatic calorimetry | 64.88
38.66 K, Crystal 1, Small (less than 1 g) adiabatic calorimetry | 65.91
38.66 K, Crystal 2, Small (less than 1 g) adiabatic calorimetry | 70.19
40 K, Crystal 1, Vacuum adiabatic calorimetry | 68.45
40 K, Crystal 2, Vacuum adiabatic calorimetry | 72.67
40.05 K, Crystal 1, Small (less than 1 g) adiabatic calorimetry | 68.62
40.1 K, Crystal 2, Small (less than 1 g) adiabatic calorimetry | 72.86
40.24 K, Crystal 1, Small (less than 1 g) adiabatic calorimetry | 68.92
41.44 K, Crystal 2, Small (less than 1 g) adiabatic calorimetry | 75.41
41.46 K, Crystal 1, Small (less than 1 g) adiabatic calorimetry | 71.35
42.21 K, Crystal 1, Small (less than 1 g) adiabatic calorimetry | 72.67
42.84 K, Crystal 2, Small (less than 1 g) adiabatic calorimetry | 78.05
42.89 K, Crystal 1, Small (less than 1 g) adiabatic calorimetry | 74.07
44.12 K, Crystal 1, Small (less than 1 g) adiabatic calorimetry | 76.27
44.27 K, Crystal 2, Small (less than 1 g) adiabatic calorimetry | 80.76
44.33 K, Crystal 1, Small (less than 1 g) adiabatic calorimetry | 76.76
45.76 K, Crystal 2, Small (less than 1 g) adiabatic calorimetry | 83.54
45.77 K, Crystal 1, Small (less than 1 g) adiabatic calorimetry | 79.44
46.11 K, Crystal 1, Small (less than 1 g) adiabatic calorimetry | 79.97
47.22 K, Crystal 1, Small (less than 1 g) adiabatic calorimetry | 82.08
47.31 K, Crystal 2, Small (less than 1 g) adiabatic calorimetry | 86.36
48.17 K, Crystal 1, Small (less than 1 g) adiabatic calorimetry | 83.7
48.67 K, Crystal 1, Small (less than 1 g) adiabatic calorimetry | 84.74
48.88 K, Crystal 2, Small (less than 1 g) adiabatic calorimetry | 89.17
50 K, Crystal 1, Vacuum adiabatic calorimetry | 86.93
50 K, Crystal 2, Vacuum adiabatic calorimetry | 91.14
50.13 K, Crystal 1, Small (less than 1 g) adiabatic calorimetry | 87.32
50.27 K, Crystal 1, Small (less than 1 g) adiabatic calorimetry | 87.41
50.47 K, Crystal 2, Small (less than 1 g) adiabatic calorimetry | 91.97
51.6 K, Crystal 1, Small (less than 1 g) adiabatic calorimetry | 89.81
52.07 K, Crystal 2, Small (less than 1 g) adiabatic calorimetry | 94.74
52.41 K, Crystal 1, Small (less than 1 g) adiabatic calorimetry | 91.07
53.06 K, Crystal 1, Small (less than 1 g) adiabatic calorimetry | 92.27
53.69 K, Crystal 2, Small (less than 1 g) adiabatic calorimetry | 97.39
54.53 K, Crystal 1, Small (less than 1 g) adiabatic calorimetry | 94.7
54.59 K, Crystal 1, Small (less than 1 g) adiabatic calorimetry | 94.68
55.31 K, Crystal 2, Small (less than 1 g) adiabatic calorimetry | 100.11
56.01 K, Crystal 1, Small (less than 1 g) adiabatic calorimetry | 97.07
56.79 K, Crystal 1, Small (less than 1 g) adiabatic calorimetry | 98.21
56.94 K, Crystal 2, Small (less than 1 g) adiabatic calorimetry | 102.73
57.48 K, Crystal 1, Small (less than 1 g) adiabatic calorimetry | 99.44
58.59 K, Crystal 2, Small (less than 1 g) adiabatic calorimetry | 105.37
58.96 K, Crystal 1, Small (less than 1 g) adiabatic calorimetry | 101.75
58.97 K, Crystal 1, Small (less than 1 g) adiabatic calorimetry | 101.63
60 K, Crystal 1, Vacuum adiabatic calorimetry | 103.22
60 K, Crystal 2, Vacuum adiabatic calorimetry | 107.66
60.24 K, Crystal 2, Small (less than 1 g) adiabatic calorimetry | 108.04
60.44 K, Crystal 1, Small (less than 1 g) adiabatic calorimetry | 104.07
61.09 K, Crystal 1, Small (less than 1 g) adiabatic calorimetry | 104.91
61.9 K, Crystal 2, Small (less than 1 g) adiabatic calorimetry | 110.62
